In data set [1] the target is T1, HIV-1 RT-associated RNase H (Human immunodeficiency virus type 1 group M subtype B, UniProt P04585). Put plainly: HIV-1 DNA polymerase-independent RNase H activity determination (wt RT). It is filed as biochemical. The procedure: (§1) Heterodimeric RT was expressed essentially as described[19]^,[39]. Using a BioLogic LP system (Biorad), using a combination of immobilised metal affinity (Ni-Sepharose high performance, Healthcare Lifescience) and ion exchange chromatography (Hi-trap heparin HP GE). The protein was dialysed and stored in buffer containing 50 mM Tris HCl pH 7.0, 25 mM NaCl, 1 mM EDTA, and 50% glycerol. Catalytic activities and protein concentrations were determined. Enzyme-containing fractions were pooled and aliquots were stored at −80 °C.
(§2) HIV RT-associated RNase H activity was measured as described[40] using as a control the RNase H selective inhibitor RDS1759[9], and using different amount of enzymes according to a linear range of dose-response curve: 20 ng of WT RT; 75 ng V108F RT; 50 ng Y188A RT; 30 ng W229A RT; 100 ng A502F RT.

Data set [2] can be described thus: Cytotoxicity in MT-4 cells. The following applies: human.
In data set [3] the target is T1, HIV-1 RT-associated RNase H. Also on record: method as in PMID 26990134. The following applies: previously reported value; read-out: IC50, RNase H inhibition; cited from earlier work.
Data set [4] addresses T2, HIV-1 RT-associated RNA dependent DNA polymerase (RDDP) (Human immunodeficiency virus type 1 group M subtype B, UniProt P04585). Also on record: method as in PMID 26990134. The following applies: RDDP vs RNase H; cited from earlier work.
Data set [5] has as its target V108F RT (RDDP function) (Human immunodeficiency virus type 1 group M subtype B, UniProt P04585, V695F). Description: RDDP activity of V108F mutated RT. It is filed as biochemical, HIV-1. Here is the method: (§3) RNA-dependent DNA polymerase (RDDP) activity was measured as described[17] using and different amounts of enzymes according to a linear range of dose-response curve: 6 ng wt RT; 19 ng V108F RT; 45 ng Y188A RT; 30 ng W229A RT; A502F RT. The Yonetani-Theorell analysis was performed as previously described[41]^,[42].

The target in data set [6] is W229A RT (RNase H function) (Human immunodeficiency virus type 1 group M subtype B, UniProt P04585, W816A). Description: RNase H activity of W229A mutated RT. In kind it is biochemical, HIV-1. The following applies: compared with wt RT. The procedure:
as §2

A short description of data set [7]: Interaction between Mg2+ and HIV-1 RT inhibitors (UV-Vis spectra with MgCl2). It is filed as physicochemical. The following applies: 100 µM compound, MgCl2 up to 1.25 mM. Here is the method: The effects of the magnesium ions were evaluated by mean of spectrophotometric method as reported, using a Ultrospec 2100 pro UV-Vis spectrophotometer (Amersham Biosciences) and Hellma quartz cuvette with 1 cm optical path. […]. Each studied compound was dissolved in DMSO to a final concentration of 10 mM and diluted in milliQ water to a final concentration of 100 µM. Each obtained solution was placed in a cuvette and the UV-Vis and the spectra were recorded between 200 and 700 nm using water milliQ (with a percentage of DMSO equal to the one present in the sample solution) as reference. Thereafter, small volumes of MgCl2 aqueous solution were added both in the sample and in the reference cuvettes to obtain a series of solutions containing increasing concentrations of MgCl2, up to 1.25 mM, carefully pipetting to mix, and the UV-Vis spectra were repeated. Each experiment was performed in triplicate.

The target in data set [8] is A502F RT (RDDP function) (Human immunodeficiency virus type 1 group M subtype B, UniProt P04585, A1089F). Description: RDDP activity of A502F mutated RT. In kind it is biochemical, HIV-1. The following applies: compared with wt RT. Here is the method:
as §3

Data set [9] deals with V108F RT (RNase H function) (Human immunodeficiency virus type 1 group M subtype B, UniProt P04585, V695F). Put plainly: RNase H activity of V108F mutated RT. In kind it is biochemical, HIV-1. The following applies: compared with wt RT. The procedure:
as §2

Data set [10] addresses Y188A RT (RNase H function) (Human immunodeficiency virus type 1 group M subtype B, UniProt P04585, Y775A). Put plainly: RNase H activity of Y188A mutated RT. The following applies: compared with wt RT. In kind it is biochemical, HIV-1. The procedure:
as §2

Data set [11] deals with T2, HIV-1 RT-associated RNA dependent DNA polymerase (RDDP). Description: HIV-1 RNA-dependent DNA polymerase activity determination (wt RT). In kind it is biochemical. The procedure:
as §1, §3

In data set [12] the target is HIV-1 RT wild type RNA-dependent DNA polymerase activity (Human immunodeficiency virus type 1 group M subtype B, UniProt P04585). Put plainly: Yonetani-Theorell analysis of combination with EFV on RDDP function. In kind it is biochemical. The following applies: compound 22 at 10 and 30 μM with EFV. The procedure: as §3
The target in data set [13] is A502F RT (RNase H function) (Human immunodeficiency virus type 1 group M subtype B, UniProt P04585, A1089F). Description: RNase H activity of A502F mutated RT. It is filed as biochemical, HIV-1. Here is the method:
as §2

Data set [14] has as its target p66/p51 HIV-1 RT (Human immunodeficiency virus type 1 group M subtype B, UniProt P04585). It is filed as binding. The following applies: increasing concentration of compound; 100 ng/µl HIV-1 RT.
The target of data set [15] is W229A RT (RDDP function) (Human immunodeficiency virus type 1 group M subtype B, UniProt P04585, W816A). Description: RDDP activity of W229A mutated RT. In kind it is biochemical, HIV-1. The following applies: compared with wt RT. Here is the method:
as §3

Data set [16] concerns the target Y188A RT (RDDP function) (Human immunodeficiency virus type 1 group M subtype B, UniProt P04585, Y775A). Description: RDDP activity of Y188A mutated RT. It is filed as biochemical, HIV-1. The procedure:
as §3

Where [17] appears, read: wt RT, read-out: IC50, HIV-1 RT-associated RNase H activity.

Entries after “also recorded” stand apart in the source; their conditions may differ. Where two headings read alike, the source gives them in different places. Where only a bound is given, the exact number is not on record here.

Broadly, the IC50 is the midpoint of a concentration-inhibition curve. The term CC50 denotes the concentration giving 50% cytotoxicity.

`Nc1sc2c(c1C(=O)Nc1ccc(Cl)cc1)CCCCC2` [Compound 5]: the IC50 in data set [1] (setting [17]) is 16500 nM.

Consider `COc1ccccc1C(=O)Nc1sc2c(c1C(N)=O)CCCCC2` [Compound 7, 2-[(2-Methoxybenzoyl)amino]-5,6,7,8-tetrahydro-4H-cyclohepta[b]thiophene-3-carboxamide], for which the half-inhibitory concentration (IC50) in [1] (setting [17]) stood at 14000 nM.

As for `O=c1oc(-c2ccc(O)c(O)c2)nc2sc3c(c12)CCC3` [Compound 21, 2–(3,4-Dihydroxyphenyl)-6,7-dihydro-4H,5H-cyclopenta[4,5]thieno[2,3-d][1,3]oxazin-4-one], in data set [2], the CC50 lay within 27 to 300 µM. Moreover, the IC50 in [1] (setting [17]) amounted to 1000 nM.

For `O=C(Nc1sc2c(c1C(=O)Nc1ccccn1)CCCCC2)c1ccc(O)c(O)c1` [Compound 1], the IC50 in data set [3] was 840 nM. Further, the “weaker potency against the polymerase activity with respect to RNase H activity” value in data set [4] is on record as 20 fold.

In turn, `O=c1oc(-c2ccc(O)c(O)c2)nc2ccccc12` [Compound 26, 2–(3,4-Dihydroxyphenyl)-4H-3,1-benzoxazin-4-one] showed a CC50 in [2] of 27 to 300 µM.

Take `O=c1oc(-c2ccc(O)c(O)c2)nc2sc3ccccc3c12` [Compound 22, 2–(3,4-Dihydroxyphenyl)-4H-[1]benzothieno[2,3-d][1,3]oxazin-4-one]: the IC50 in data set [5] was 10.6 µM; in data set [11], 2.9 µM; in data set [1] (setting [17]), 530 nM; in data set [13], over 100 µM; in data set [16] it was 9.64 µM. The molecule also displayed a CC50 in [2] of 27 to 300 µM. Moreover, the “effect of W229A substitution on inhibition of RNase H” value in data set [6] was “did not significantly affect”. For the same molecule, in data set [7], the “magnesium complexation (UV-Vis spectra)” value was “did not show any shift in the maximum of absorbance; also recorded: unable to chelate Mg^2+ ions”. Besides, the “effect of A502F substitution on inhibition of RDDP” value in data set [8] is “not significantly affecting”. Moreover, in data set [9], the “effect of V108F substitution on inhibition of RNase H” value is “no significant effect”. Also, the “effect of Y188A substitution on inhibition of RNase H” value in data set [10] is reported as “no significant effect”. Moreover, the “Yonetani-Theorell: combined RDDP inhibition with EFV” value in data set [12] is “kinetically mutually exclusive”. Besides, the “change of RT melting temperature (Tm)” value in data set [14] is on record as “dose-dependent increase in the RT Tm”. Also, the “effect of W229A substitution on inhibition of RDDP” value in data set [15] is reported as “did not significantly affect”.

As for `O=c1oc(-c2ccc(O)c(O)c2)nc2c1CCCCC2` [Compound 25, 2–(3,4-Dihydroxyphenyl)-6,7,8,9-tetrahydrocyclohepta[d][1,3]oxazin-4(5H)-one], the CC50 in [2] fell in the range of 27 to 300 µM.

In data set [2], `O=c1oc(-c2ccc(O)c(O)c2)nc2c1sc1ccccc12` [Compound 24, 2–(3,4-Dihydroxyphenyl)-4H-[1]benzothieno[3,2-d][1,3]oxazin-4-one] yielded a CC50 of 27 to 300 µM. In addition, in data set [7], the “magnesium complexation (UV-Vis spectra)” value is reported as “did not show any shift in the maximum of absorbance; also recorded: unable to chelate Mg^2+ ions”. Also, the IC50 in data set [11] amounted to 14.6 µM; in data set [1] (setting [17]), 960 nM. In addition, the “change of RT melting temperature (Tm)” value in [14] is recorded as “dose-dependent increase in the RT Tm”.

For `O=c1oc(-c2ccc(O)c(O)c2)nc2sc3c(c12)CCCCC3` [Compound 10, 2–(3,4-Dihydroxyphenyl)-6,7,8,9-tetrahydro-4H,5H-cyclohepta[4,5]thieno[2,3-d][1,3]oxazin-4-one], in [2], the CC50 lay within 27 to 300 µM. For the same molecule, the IC50 turned out to be 11000 nM in data set [1] (compound added after the RNA:DNA duplex substrate, read-out: IC50, RNase H activity, compound added after the RNA:DNA duplex substrate) and 1100 nM in data set [1] (setting [17]).

As for `NC(=O)c1c(NC(=O)c2ccc(O)c(O)c2)sc2c1CCCCC2` [Compound 6, 2-[(3,4-Dihydroxybenzoyl)amino]-5,6,7,8-tetrahydro-4H-cyclohepta[b]thiophene-3-carboxamide], the IC50 in data set [1] (setting [17]) was 2600 nM.

`O=c1oc(-c2ccc(O)c(O)c2)nc2sc3c(c12)CCCC3` [Compound 20, 2–(3,4-Dihydroxyphenyl)-5,6,7,8-tetrahydro-4H-[1]benzothieno[2,3-d][1,3]oxazin-4-one] yielded a CC50 in [2] of 27 to 300 µM. Besides, the IC50 in [1] (setting [17]) stood at 3350 nM.

The molecule `O=c1oc(-c2ccc(O)c(O)c2)nc2c3c(sc12)CCCCC3` [Compound 23, 2–(3,4-Dihydroxyphenyl)-7,8,9,10-tetrahydrocyclohepta[4,5]thieno[3,2-d][1,3]oxazin-4(6H)-one] returned a CC50 in [2] of 27 to 300 µM.

`O=c1oc(-c2ccccc2O)nc2sc3c(c12)CCCCC3` [Compound 12, 2–(2-Hydroxyphenyl)-6,7,8,9-tetrahydro-4H,5H-cyclohepta[4,5]thieno[2,3-d][1,3]oxazin-4-one]: the IC50 in [1] (setting [17]) came to 18200 nM.

Regarding `O=c1[nH]c(-c2ccc(O)c(O)c2)nc2ccccc12` [Compound 27, 2–(3,4-Dihydroxyphenyl)quinazolin-4(3H)-one], in data set [2], the CC50 fell in the range of 27 to 300 µM.

Values taken from publication PMC6211256, “From cycloheptathiophene-3-carboxamide to oxazinone-based derivatives as allosteric HIV-1 ribonuclease H inhibitors” (Journal of Enzyme Inhibition and Medicinal Chemistry, 2018).
